Data: article PMC12117180, “DNA‐Binding Properties of Non‐Intercalating Water‐Soluble Organometallic Ir(III) Luminophores” (Chemistry (Weinheim an Der Bergstrasse, Germany), 2025)

Key:
FSDNA [1] = experiment: Steady-state and time-resolved luminescence in absence and presence of FSDNA; design: species or system fish; conditions: for increase (lifetime) on DNA binding: time-resolved luminescence, with vs without FSDNA; for luminescence intensity enhancement following the addition of DNA: λex = 410 nm, 25 mM MOPS, pH 7.0, 50 mM NaCl, uncorrected for dilution
Method: Finally, the influence of DNA binding on the luminescence properties of the complexes was investigated. Steady‐state fluorescence spectra (using λ ex = 410 nm) were recorded both in the absence and presence of FSDNA, using a buffer of 25 mM MOPS, pH 7.0, and 50 mM NaCl. First, the appearance and shape of the emission bands (Figure S26) were not influenced by binding to DNA; the position of the emission maxima and the peak shape were generally retained upon the addition of DNA. […] The time‐resolved luminescence measurements support the inhibition of excited state quenching processes leading to the observed increase in integrated intensity.
All reactions were performed with the use of a vacuum line and Schlenk techniques. Reagents were commercial grade and were used without further purification. ^1H, ^19F, and ^13C NMR spectra were recorded on a Bruker Avance dpx 500 MHz spectrometer and were recorded on d^6‐DMSO solutions. ^1H, ^13C{^1H} NMR chemical shifts (δ) were determined relative to internal tetramethylsilane, Si(CH3)4 and are given in ppm. Mass spectra were obtained by the staff at Cardiff University using a Waters Xevo G2‐XS QTof spectrometer. All photophysical data was obtained on a JobinYvon‐Horiba Fluorolog‐3 spectrometer fitted with a JY TBX picosecond photodetection module. The pulsed source was a Nano‐LED configured for 295 nm output operating at 1 MHz. Luminescence lifetime profiles were obtained using the JobinYvon–Horiba FluoroHub single photon counting module and the data fits yielded the lifetime values using DAS6 deconvolution software. IR spectra were recorded on an ATR‐equipped Shimadzu IRAffinity‐1 spectrophotometer. UV‐vis data were recorded as solutions on a Perkin Elmer Lamda20 spectrophotometer. The pH values of aqueous solutions were determined using a Hanna Instruments pH211 microprocessor pH meter with a Bioblock Scientific pH electrode.

fish sperm DNA (FSDNA) = experiment: UV-visible titrations with fish sperm DNA, multiple independent binding sites (MIS) model; conditions: 25 mM MOPS, 50 mM NaCl, pH 7.0, 25 °C; for K (apparent DNA-binding affinity): association constant
Method: We then studied the interactions of the complexes with double‐stranded DNA using UV‐visible titrations. Briefly, solutions of 44.14, 31.52, 35.17, 37.55, and 29.62 µM for the five complexes [Ir(L1‐5)2(en)]Cl, respectively, were titrated (in duplicate) with fish sperm DNA (FSDNA) at 25 °C (Figure 7 and Figures S19–22). The interactions between these complexes and DNA turned out not to involve a single type of binding site (vide infra). Nevertheless, the data from the UV‐visible titrations were provisionally analyzed globally using the multiple independent binding sites (MIS) model to determine apparent binding affinities and apparent binding site sizes (Table 4).
All solutions were prepared by dissolving solids in a buffer with stirring, then filtration through a 0.22 µm PES filter to remove solid particles and ensure uniform, saturated solutions before titration. Concentrations were determined using extinction coefficients. MOPS buffer was prepared by dissolving MOPS (3‐(N‐morpholino)propanesulfonic acid, NaCl (all obtained from Fisher and used as supplied) in deionized water (Elga Purelab Flex), adjusting the pH to 7.0 using a NaOH solution (pH of the buffer was determined using a Hanna Instruments pH211 microprocessor pH meter with a Bioblock Scientific pH probe) and making up the solution to 0.5 liter. A stock solution of fish sperm DNA was prepared by dissolving approximately 0.1 g of fish sperm DNA in 10 mL of the buffer. The resulting solution was dialyzed (3.5 kDa MWCO, Visking, Medicell International Ltd) against 0.5 liters of buffer. Following dialysis, the DNA concentration was determined using UV‐visible spectroscopy using a molar absorption coefficient ε260 nm = 12 800 M^−1 cm^−1.^[ [37] ^] Spectra and titrations were plotted in OriginLab Origin 2019b. The titration data were analyzed globally for each complex using an in‐house written version of the multiple independent binding sites model which also explicitly takes changing ligand concentrations into account.^[ [49] ^]

[2] = Solubility limits in buffer from saturated solutions; assay type: physicochemical
Method: We next estimated the solubility limits of the complexes in buffer (25 mM MOPS, pH 7.0, 50 mM NaCl) from saturated solutions, using the molar absorption coefficients in Table S4 (see also Figures S14–18). […] These values mirror the trend predicted (via logP^[ [39] ^]) for the relative hydrophobicities of the cyclometalating ligands, which is ultimately controlled by the ligand substituent (H vs Me vs OMe vs Cl vs OCF3).

[3] = ITC dilution experiments (self-aggregation); assay type: physicochemical
Text: To explore whether multiple binding modes are indeed present for these complexes interacting with DNA, we turned to isothermal titration calorimetry (ITC). ITC typically involves titrating a relatively concentrated solution of the binder into a more dilute solution of DNA (instead of titrating a relatively concentrated DNA solution into a more dilute solution of the binder). Therefore, the possible self‐aggregation of the DNA binders was explored through dilution experiments in which solutions of a complex at representative concentrations in buffer (25 mM MOPS, pH 7.0, 50 mM NaCl) were diluted into matched buffer in the calorimeter cell.
Further experiments at different complex concentrations confirm this sigmoidal behavior of the dilution heat effects around a critical concentration. […] Nevertheless, self‐assembled nanoparticles of organic fluorophores with micromolar CACs have been reported.^[ [43] ^]
CACs are typical for cooperative aggregation processes, such as micellization, and we therefore interpret the data as [Ir(L1)2(en)]Cl cooperatively self‐aggregating in these buffer conditions (25 mM MOPS, pH 7.0, 50 mM NaCl). While it is known that the determination of aggregation numbers from titration calorimetry data is challenging, other thermodynamic parameters are readily available. […] The molar enthalpy for self‐aggregation of −92 kJ mol^−1 (difference between average pre‐ and post‐CAC heat effects) indicates a highly exothermic self‐aggregation process accompanied by a T×Δ°S aggregation of […]. […]
Buffers employed in the experiments were 50 mM NaCl and 25 mM MOPS (adjusted to pH 7 with NaOH) and 5 mM NaCl and 25 mM MOPS (adjusted to pH 7 with NaOH). […] Concentrations of solutions of complexes and of DNA were determined using UV‐visible spectroscopy. […]

FSDNA [4] = experiment: Isothermal titration calorimetry of DNA binding, two types of independent binding sites; design: species or system fish; conditions: 25 mM MOPS, 5 mM NaCl, pH 7.0, 25 °C; for K A1 / n A1: high-affinity site; for K B1 / n B1: low-affinity site
Method: Cooperative self‐aggregation of DNA binders in combination with DNA binding makes data analysis complex because of the presence of coupled equilibria.^[ [46] ^] In the case of aggregation of charged species, the aggregation process tends to be very sensitive to salt concentration. We therefore studied self‐aggregation in buffer at a lower salt concentration (25 mM MOPS, pH 7.0, 5 mM NaCl) and found no indications of self‐aggregation. We therefore opted to carry out the ITC experiments in a buffer with a reduced salt concentration of 5 mM. Titrations were carried out in two parts, viz. a first titration focussing on the first binding event followed by a second titration focussing on the second binding event (Figures S23–25 with complex and DNA concentrations for each individual titration in Table S5). Figures S23 and S25 clearly show two binding events, as anticipated from UV‐visible titrations.
We analyzed the data using a model involving two types of independent binding sites, correcting for dilution heat effects in our custom data analysis software I2CITC^[ [45], [47] ^] […] The complexes also bind to a second lower affinity type of binding site with a size of approximately 2–3 basepairs with an affinity K B1 of the order of 10^5 M^−1 in an exothermic process. Based on the combination of binding site size and the exothermic interaction, we attribute the low‐affinity binding event to non‐specific binding of the cationic complexes to negatively charged DNA, supported by hydrophobic interactions between complexes. The binding site size of the higher affinity binding site exceeds the dimensions of the complexes of around five base pairs, as estimated from the docking studies (vide supra). […] Intriguingly, the relatively low ΔH A1 is in line with groove binding.^[ [48] ^]
Buffers employed in the experiments were 50 mM NaCl and 25 mM MOPS (adjusted to pH 7 with NaOH) and 5 mM NaCl and 25 mM MOPS (adjusted to pH 7 with NaOH). Solutions of DNA were prepared by diluting the DNA stock solutions (see UV‐visible titrations) as required. Complex solutions were prepared by dissolving 5 mg of the complex in 5 mL of buffer, then filtered through a 0.22 µm PES filter to ensure uniform solutions for ITC titration. Concentrations of solutions of complexes and of DNA were determined using UV‐visible spectroscopy. Calorimetric titrations were carried out at 25 °C on a MicroCal PEAQ‐ITC microcalorimeter (Malvern Instruments Ltd., Worcestershire, UK). The instrument was operated by applying a reference power of 10 μcal/s in high‐feedback mode, stirring the sample cell contents at 750 rpm, with a pre‐injection initial delay of 60 s. Solutions of complexes were loaded into the calorimeter injection syringe and DNA solutions were loaded into the sample cell. All experiments involved an initial injection of 0.4 µL in 0.8 s followed by 18 further injections of 2.0 µL in 4.0 s per injection into the calorimeter sample cell. Injections were spaced by at least 90 s to allow full recovery of the baseline. Raw data were treated using MicroCal PEAQ‐ITC Analysis Software (1.41) to generate both integrated heat effects per injection (ΔQ) and molar heat effects per injection (ΔH). Further data analysis was carried out using I2CITC.^[ [45], [47] ^]

[5] = buffer 25 mM MOPS, pH 7.0, 50 mM NaCl, saturated solutions, estimated via molar absorption coefficients

critical aggregation concentration (CAC) ([3]; 25 mM MOPS, pH 7.0, 50 mM NaCl, 25 °C) [µM]	molar enthalpy for self‐aggregation ([3]; difference between average pre‐ and post‐CAC heat effects) [kcal/mol]	equilibrium constant for aggregation ([3]; from CAC, 25 mM MOPS, pH 7.0, 50 mM NaCl) [M⁻¹]	Solubility limit ([2]; pH 7) [µM]	SMILES	increase (lifetime) on DNA binding (FSDNA [1]) [%]	binding site size (apparent) (fish sperm DNA (FSDNA)) [base pairs]	K (apparent DNA-binding affinity) (fish sperm DNA (FSDNA))	Solubility limit [2, 5] [µM]	K A1 (FSDNA [4])	n A1 (FSDNA [4]) [bp^−1]	K B1 (FSDNA [4])	n B1 (FSDNA [4])	luminescence intensity enhancement following the addition of DNA (FSDNA [1])
				Clc1c[c-]c(-c2nc3ccccc3s2)cc1.Clc1c[c-]c(-c2nc3ccccc3s2)cc1.NCCN.[Cl-].[Ir+3] [[Ir(L4)2(en)]Cl]	75	0.43 ± 0.19	0.8 ± 0.7 10^5 M^−1	100					
2.1	-22	480000	978	NCCN.[Cl-].[Ir+3].[c-]1ccccc1-c1nc2ccccc2s1.[c-]1ccccc1-c1nc2ccccc2s1 [[Ir(L1)2(en)]Cl]		0.70 ± 0.15	4.3 ± 5.3 10^5 M^−1		239 10^6 M^−1	0.06	0.14 10^6 M^−1	0.46	
				COc1c[c-]c(-c2nc3ccccc3s2)cc1.COc1c[c-]c(-c2nc3ccccc3s2)cc1.NCCN.[Cl-].[Ir+3] [[Ir(L3)2(en)]Cl]		0.76 ± 0.04	4.6 ± 2.3 10^5 M^−1	739	19 10^6 M^−1	0.07	0.13 10^6 M^−1	0.31	40–65%
				FC(F)(F)Oc1c[c-]c(-c2nc3ccccc3s2)cc1.FC(F)(F)Oc1c[c-]c(-c2nc3ccccc3s2)cc1.NCCN.[Cl-].[Ir+3] [[Ir(L5)2(en)]Cl]	98	0.92 ± 0.18	0.6 ± 0.3 10^5 M^−1	75					40–65%
				Cc1c[c-]c(-c2nc3ccccc3s2)cc1.Cc1c[c-]c(-c2nc3ccccc3s2)cc1.NCCN.[Cl-].[Ir+3] [[Ir(L2)2(en)]Cl]		0.64 ± 0.05	4.2 ± 3.7 10^5 M^−1	327	132 10^6 M^−1	0.03	0.41 10^6 M^−1	0.57	
